# Measured values taken from patent publication US20240293400A1, “NOVEL AZAINDOLE DERIVATIVES AS ANTIVIRAL AGENTS” (Centre National de la Recherche Scientifique, priority 2021, published 2024).
# Columns and labels:
# [1] = system: DENV subtype 2 strain (DENV2); assay: Antiviral activity against the dengue virus in HeLa cells; assay type: cell-based; conditions: 72 h, DENV2, 3 days
# [2] = system: CHIKV virus, LR-OPY1 strain; assay: Antiviral activity against the Chikungunya virus in HeLa cells; assay type: cell-based; conditions: 24 h
# ZIKV BeH8 strain = conditions: cited from earlier work
smiles,measurement,setting,value
"Nc1nc(Nc2ccc3c(c2)CC[C@@H](N2CCCC2)CC3)nn1-c1cc2c(nn1)-c1ccccc1CCC2 [R428/Bemcentinib, Bemcentinib]",IC50,[1],488 nM
same,IC50,[2],239 nM
same,concentrations of efficacy against the ZIKV virus described in the literature,ZIKV BeH8 strain,1 to 3 µM
